Test results reported in ChEMBL document CHEMBL1201862, “PubChem BioAssay data set” (2004).
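All cell lines were grown in 96-well plates and treated with compound for 48 hours. Here, GI50 denotes the concentration required for 50% inhibition of growth.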 Calls of active or inactive are those of the source. No stated cut-off is given here; in the data, active = GI50 up to about 1.1 µM and inactive = higher.

Assays:
Experiment in all cases: inhibition of tumour cell growth, NCI panel, 48 h
[1] = tested on: A498
[2] = tested on: ACHN
[3] = tested on: EKVX
[4] = tested on: HCT-116
[5] = tested on: HT-29
[6] = tested on: MDA-MB-435
[7] = tested on: MDA-N
[8] = tested on: NCI-H460
[9] = tested on: NCI/ADR-RES
[10] = tested on: OVCAR-4
[11] = tested on: SK-MEL-28
[12] = tested on: SK-MEL-2
[13] = tested on: SK-MEL-5
[14] = tested on: SK-OV-3
[15] = tested on: SN12C

Structure (SMILES)	GI50 [1]	GI50 [2]	GI50 [3]	GI50 [4]	GI50 [5]	GI50 [6]	GI50 [7]	GI50 [8]	GI50 [9]	GI50 [10]	GI50 [11]	GI50 [12]	GI50 [13]	GI50 [14]	GI50 [15]
COc1ccc2c3c1OC1C(OC)(OC)C=C[C@@]4(Br)[C@@H](C2)N(CC2CC2)CC[C@]314 (stereo partly specified)	> 100 µM (inactive)	> 100 µM (inactive)	> 100 µM (inactive)	44 µM (inactive)	61.9 µM (inactive)	61.2 µM (inactive)	49.5 µM (inactive)	62.7 µM (inactive)	> 100 µM (inactive)	43.7 µM (inactive)	> 100 µM (inactive)	38.5 µM (inactive)	37.6 µM (inactive)	> 100 µM (inactive)	> 100 µM (inactive)
O=C1OC2(c3ccc(O)cc3Oc3cc(O)ccc32)c2c1c(-c1ccccc1)c(-c1ccccc1)c(-c1ccccc1)c2-c1ccccc1	19.7 µM (inactive)	19.9 µM (inactive)	25.8 µM (inactive)	24.4 µM (inactive)	18.7 µM (inactive)	17.2 µM (inactive)	21.8 µM (inactive)	17.7 µM (inactive)	31.2 µM (inactive)	27.8 µM (inactive)	20.8 µM (inactive)	20 µM (inactive)	27.7 µM (inactive)	39 µM (inactive)	25.1 µM (inactive)
CN1CCN([C@H]2C[C@H]3[C@@H]4CC=C5C[C@@H](O)CC[C@]5(C)[C@H]4CC[C@]3(C)[C@H]2O)CC1	> 100 µM (inactive)	> 100 µM (inactive)	> 100 µM (inactive)	30.7 µM (inactive)	7.29 µM (inactive)	16.9 µM (inactive)	19 µM (inactive)	> 42.7 µM (inactive)	> 87.7 µM (inactive)	> 41.1 µM (inactive)	27.4 µM (inactive)	> 83.9 µM (inactive)	35.5 µM (inactive)	> 100 µM (inactive)	> 100 µM (inactive)
c1ccc2c(CN3CCN(Cc4c[nH]c5ccccc45)CC3)c[nH]c2c1	14.4 µM (inactive)	19.3 µM (inactive)	13.3 µM (inactive)	14.8 µM (inactive)	17.5 µM (inactive)	16.2 µM (inactive)	14.9 µM (inactive)	12.7 µM (inactive)	23 µM (inactive)	41.4 µM (inactive)	17.9 µM (inactive)	16.7 µM (inactive)	15.2 µM (inactive)	21.4 µM (inactive)	17.7 µM (inactive)
c1cc(Sc2nc(Sc3ccncc3)nc(Sc3ccncc3)n2)ccn1	> 100 µM (inactive)	> 100 µM (inactive)	> 100 µM (inactive)	> 100 µM (inactive)	> 100 µM (inactive)	> 100 µM (inactive)	> 100 µM (inactive)	> 100 µM (inactive)	> 100 µM (inactive)	> 100 µM (inactive)	> 100 µM (inactive)	> 100 µM (inactive)	> 100 µM (inactive)	> 100 µM (inactive)	> 100 µM (inactive)
O=C1N(CN2CCOCC2)CN(CN2CCOCC2)C(=O)N1Cc1ccccc1	> 100 µM (inactive)	32.5 µM (inactive)	38.5 µM (inactive)	22.8 µM (inactive)	20.3 µM (inactive)	20 µM (inactive)	18.2 µM (inactive)	32.6 µM (inactive)	23.1 µM (inactive)	42.7 µM (inactive)	19.3 µM (inactive)	16.3 µM (inactive)	19.4 µM (inactive)	> 100 µM (inactive)	23 µM (inactive)
O=C(N/C(=C\c1ccccc1)c1nc2ccccc2c(=O)o1)c1ccccc1	> 100 µM (inactive)	31 µM (inactive)	57.3 µM (inactive)	> 55.3 µM (inactive)	> 100 µM (inactive)	23.6 µM (inactive)	> 53 µM (inactive)	> 72.6 µM (inactive)	33.4 µM (inactive)	> 88.5 µM (inactive)	> 100 µM (inactive)	> 100 µM (inactive)	> 100 µM (inactive)	59.2 µM (inactive)	> 86.7 µM (inactive)
CCCC(=O)Nc1cc(C(=O)N2C[C@H]3C[C@@]34C2=CC(=O)c2[nH]cc(C)c24)n(COC)c1	0.741 µM (active)	0.197 µM (active)	0.843 µM (active)	0.182 µM (active)	0.467 µM (active)	0.19 µM (active)	0.582 µM (active)	0.317 µM (active)	0.656 µM (active)	0.783 µM (active)	0.208 µM (active)	0.293 µM (active)	0.0792 µM (active)	1.29 µM (inactive)	0.966 µM (active)
CSCCCCCCCCCCOc1ccc(C=C2C(=C(C#N)C#N)c3ccccc3C2=C(C#N)C#N)cc1	17 µM (inactive)	13.1 µM (inactive)	18.1 µM (inactive)	16.9 µM (inactive)	17.3 µM (inactive)	16.7 µM (inactive)	18.3 µM (inactive)	17.7 µM (inactive)	29 µM (inactive)	18.3 µM (inactive)	16.1 µM (inactive)	20.1 µM (inactive)	17.9 µM (inactive)	17.6 µM (inactive)	–
COc1ccc2nc(-c3ccc(O)cc3)sc2c1	30.3 µM (inactive)	18 µM (inactive)	18.1 µM (inactive)	17.5 µM (inactive)	20 µM (inactive)	25.2 µM (inactive)	22.5 µM (inactive)	39.3 µM (inactive)	29.8 µM (inactive)	28.5 µM (inactive)	–	43.4 µM (inactive)	18.2 µM (inactive)	32.5 µM (inactive)	20.6 µM (inactive)
O=C(Oc1ccc(S(=O)(=O)F)cc1F)c1ccccc1Cl	57.5 µM (inactive)	56 µM (inactive)	24.4 µM (inactive)	47.2 µM (inactive)	27 µM (inactive)	29.6 µM (inactive)	33.3 µM (inactive)	27.3 µM (inactive)	35.2 µM (inactive)	30.1 µM (inactive)	74 µM (inactive)	54.5 µM (inactive)	16.2 µM (inactive)	98.9 µM (inactive)	31.5 µM (inactive)
O=C(Cn1cc(F)c(=O)[nH]c1=O)C12CC3CC(CC(C3)C1)C2	> 100 µM (inactive)	> 100 µM (inactive)	> 100 µM (inactive)	> 100 µM (inactive)	> 100 µM (inactive)	> 100 µM (inactive)	> 100 µM (inactive)	> 100 µM (inactive)	> 100 µM (inactive)	> 100 µM (inactive)	> 100 µM (inactive)	> 100 µM (inactive)	> 100 µM (inactive)	> 100 µM (inactive)	> 100 µM (inactive)
COc1cc(CCN(C)C)cc(OC)c1OC	> 100 µM (inactive)	> 100 µM (inactive)	> 100 µM (inactive)	> 100 µM (inactive)	> 100 µM (inactive)	> 100 µM (inactive)	> 100 µM (inactive)	> 100 µM (inactive)	> 100 µM (inactive)	> 100 µM (inactive)	–	> 100 µM (inactive)	> 100 µM (inactive)	> 100 µM (inactive)	> 100 µM (inactive)
COC(=O)[C@@H](N1C(=O)c2ccccc2C1=O)C1(C)CC(Cl)=NO1 (stereo partly specified)	34.7 µM (inactive)	> 100 µM (inactive)	38.8 µM (inactive)	75.5 µM (inactive)	> 100 µM (inactive)	> 100 µM (inactive)	> 100 µM (inactive)	> 100 µM (inactive)	26.8 µM (inactive)	> 100 µM (inactive)	> 100 µM (inactive)	> 100 µM (inactive)	> 100 µM (inactive)	33.8 µM (inactive)	33 µM (inactive)
N#C/C(=C/NC(=S)NCc1ccccc1)C(N)=O	> 100 µM (inactive)	> 100 µM (inactive)	> 100 µM (inactive)	> 100 µM (inactive)	> 100 µM (inactive)	> 100 µM (inactive)	> 100 µM (inactive)	> 100 µM (inactive)	> 100 µM (inactive)	> 100 µM (inactive)	> 100 µM (inactive)	> 100 µM (inactive)	> 100 µM (inactive)	> 100 µM (inactive)	> 100 µM (inactive)
O=C1Nc2ccccc2S/C1=C\c1cccc(C(F)(F)F)c1	> 100 µM (inactive)	> 100 µM (inactive)	> 100 µM (inactive)	> 100 µM (inactive)	> 100 µM (inactive)	> 100 µM (inactive)	> 100 µM (inactive)	> 100 µM (inactive)	> 100 µM (inactive)	> 100 µM (inactive)	> 100 µM (inactive)	> 100 µM (inactive)	> 100 µM (inactive)	> 100 µM (inactive)	> 100 µM (inactive)
COc1cc(/C=C2\CCC(C)C3=C(c4cc(OC)c(OC)c(OC)c4)C(C#N)=C(N)OC32)cc(OC)c1OC (stereo unspecified)	4 µM (inactive)	3.89 µM (inactive)	3.08 µM (inactive)	2.2 µM (inactive)	2 µM (inactive)	2.76 µM (inactive)	2.47 µM (inactive)	3.57 µM (inactive)	3.74 µM (inactive)	2.97 µM (inactive)	2.85 µM (inactive)	2.09 µM (inactive)	2.61 µM (inactive)	5.32 µM (inactive)	3.21 µM (inactive)
CC1=CC(=O)N(n2c(C)n[nH]c2=O)C1=O	> 100 µM (inactive)	> 100 µM (inactive)	> 100 µM (inactive)	> 100 µM (inactive)	> 100 µM (inactive)	> 100 µM (inactive)	> 100 µM (inactive)	> 100 µM (inactive)	> 100 µM (inactive)	> 100 µM (inactive)	–	> 100 µM (inactive)	> 100 µM (inactive)	> 100 µM (inactive)	> 100 µM (inactive)
